Test results published in patent US7902422B2 (priority 2004, dated 2011).
Where a SMILES comes first, the peptide text is derived from it. [ ]: non-standard residue; d: D form. The star is where a group is joined. Nva = CCC[C@H](N)C(=O)O; Cbz = O=C(OCc1ccccc1)*

How the values were obtained:
EIN3 protein [1] = test: EIN3 protein immunoblot, etiolated wild-type seedlings; format: in vivo, Arabidopsis
Method: With the exception of eto2 in Landsberg erecta (Ler) background, the ecotype Columbia (Col-0) was the parent strain for all mutant and transgenic lines described herein. Arabidopsis seeds were surface-sterilized and plated on the surface of MS medium (4.3 g MS salts, 10 g sucrose, pH 5.7, 8 g bactoagar per liter). After 3-4 days in the light at 4° C., the plates were wrapped in foil and kept in a 24° C. incubator before the phenotypes of seedlings were analyzed. For propagation, seedlings from plates were transferred to soil (Promix-HP) and grown to maturity at 22° C. under a 16 hr light/8 hr dark cycle.
(§1) Ethylene treatment of Arabidopsis seedlings grown on plates was performed in containers by flowing through hydrocarbon-free air supplemented with 10 ppm (parts per million) ethylene or were treated with hydrocarbon-free air alone (Kieber et al., Cell 72, 427-441, 1993). For drug treatments, Arabidopsis suspension cell cultures were treated with MG132 (50 μM), MG115 (50 μM), Pefabloc SC (100 μM) or DMSO (0.1%) for a time course study. Alternatively, etiolated seedlings were germinated for three days on a disc of Whatman paper resting on the surface of MS medium. MG132 (50 μM), MG115 (50 μM), Pefabloc SC (100 μM) or DMSO (0.1%) was added to the paper discs for 4 hr. Cycloheximide (100 μM) was added to the paper discs and ethylene or air was applied for different amounts of time.

[2] = test system: transgenically overexpressed EIN3 protein; format: in vivo, Arabidopsis; settings: for abundance of transgenically overexpressed EIN3 protein: EIN3ox seedlings grown in air, MG132 50 μM, MG115 50 μM, Pefabloc SC 100 μM, 4 hr
Method: as §1

EIN3 protein [3] = test: EIN3 protein immunoblot, Arabidopsis suspension cell cultures; format: cell-based; settings: suspension cells; MG132 50 μM (after 30 min), MG115 50 μM, Pefabloc SC 100 μM
Method: as §1

EIN3-GFP fusion protein [4] = test: EIN3-GFP nuclear accumulation, fluorescence microscopy of transgenic seedlings; format: in vivo, Arabidopsis; settings: for abundance of EIN3-GFP in the nucleus: hypocotyl and root cells, ACC 50 μM or MG132 50 μM, absence of ethylene for MG132
Method: Transgenic seedlings that expressed a functional EIN3-GFP fusion protein were mounted on glass slides using PBS as a mounting medium. All images were collected on a fluorescence microscope (Olympus BX60) and the color of the images was artificially added in Photoshop 5.0 (Adobe Systems). For the time course experiment, after the first cell image was taken, 50 μM of ACC or MG132 was applied to the slide and the same cell was followed for 4 hr.

EIN3-GFP fusion protein [5] = settings: immunoblot, ethylene treatment
Method: Protein samples were prepared by homogenizing the powdered tissues in 2×SDS-PAGE sample buffer and boiling the homogenate for 5 min. After centrifugation, the protein extracts were fractionated by 4-12% gradient Tris-Glycine Novex precast gels (Invitrogen), blotted onto a nitrocellulose filter. The blot was probed first with anti-EIN3 antibody, and was subsequently stripped with 0.2 N glycine (pH 2.5) for 3 times and re-probed with either anti-CRY1 antibody (Lin et al., Proc Natl Acad Sci 92, 8423-8427, 1995) or anti-SUB1 antibody (Guo et al., Science 291, 487-490, 2001)
The triple response phenotype was scored in T2 seedlings originated from individual Kanamycin-resistant T1 plants. Transgenic seedlings that expressed a functional EIN3-GFP fusion protein were mounted on glass slides using PBS as a mounting medium. […] For the time course experiment, after the first cell image was taken, 50 μM of ACC or MG132 was applied to the slide and the same cell was followed for 4 hr.

EBF2 gene = settings: in vivo
Method: (§2) (A) Alignment of EBF1 (SEQ ID NO: 2) and EBF2 (SEQ ID NO: 4) amino acid sequences generated with ClustalW program. Identical amino acid residues in the two proteins are highlighted with black boxes. […] (B) Alignment of F-box motif sequences. […] Identities and similarities among the different proteins are highlighted by black and gray, respectively. Consensus residues are denoted by asterisks. […] Etiolated wild-type seedlings were treated with air (air) or ethylene (C2H4) for 4 hr before RNA was extracted for analysis. Each treatment was performed in replicate. The means of normalized intensity were used to indicate relative expression levels.

EBF1 gene = settings: in vivo
Method: as §2

## O=[N+]([O-])[O-].[Ag+] [silver ion, AgNO3]
EIN3 protein [1]; wild-type seedlings on MS medium with 100 μM AgNO3 for 3 days, ethylene 4 hr
  ethylene-induced EIN3 accumulation: no longer induced by ethylene

## Cl.NCCc1ccc(S(=O)(=O)F)cc1 [Pefabloc]
[2]
  abundance of transgenically overexpressed EIN3 protein: not
EIN3 protein [3]
  levels of EIN3 protein (EIN3 abundance): no effect

## CC(C)C[C@@H](C=O)NC(=O)[C@H](CC(C)C)NC(=O)[C@H](CC(C)C)NC(=O)OCc1ccccc1 [MG132] (Cbz-Leu-Leu-Leu-aldehyde)
[2]
  abundance of transgenically overexpressed EIN3 protein: similarly induced
EIN3 protein [3]
  levels of EIN3 protein (EIN3 abundance): markedly increased
EIN3-GFP fusion protein [4]
  abundance of EIN3-GFP in the nucleus: rapid nuclear accumulation

## NC1(C(=O)O)CC1 [ACC, aminocyclopropane-1-carboxylic acid]
EIN3 protein [1]; wild-type seedlings on medium with high concentrations of ACC (10 and 50 μM), 3 days
  levels of EIN3 protein: dramatically elevated
EIN3-GFP fusion protein [4]; 50 μM ACC, time course, same cell followed for 4 hr
  time of ACC treatment after which EIN3-GFP accumulated in the nucleus: 1 h
EIN3-GFP fusion protein [4]
  abundance of EIN3-GFP in the nucleus: substantially enhanced

## CCC[C@@H](C=O)NC(=O)[C@H](CC(C)C)NC(=O)[C@H](CC(C)C)NC(=O)OCc1ccccc1 [MG115] (Cbz-Leu-Leu-[Nva]-aldehyde)
[2]
  abundance of transgenically overexpressed EIN3 protein: similarly induced
EIN3 protein [3]
  levels of EIN3 protein (EIN3 abundance): enhanced EIN3 abundance

## C=C [ethylene, Ethylene]
EIN3 protein [1]; ethylene-pretreated (2 hr) wild-type seedlings, 100 μM cycloheximide, kept in ethylene
  levels of EIN3 protein with de novo translation blocked: remained constitutively high
EIN3 protein [1]; wild-type plants, ethylene gas 10 ppm, after 1 hr
  level of EIN3 protein: markedly increased
EIN3-GFP fusion protein [5]
  level of EIN3-GFP fusion protein: dramatically increased
[2]; EIN3ox plants, ethylene gas 10 ppm
  levels of transgenically overexpressed EIN3 protein: up-regulated
EBF2 gene
  RNA level of EBF2 gene: induced
EBF1 gene
  RNA level of EBF1 gene: induced
